Laboratory results published in patent US9173843B2, “Crystalline active ingredient microparticles, method for producing the same and use thereof in drugs” (Jesalis Pharma GMBH, priority 2008, dated 2015).

Experiments:
[1] = solubility kinetics by the paddle method (dissolved fraction by HPLC); type: physicochemical; conditions: 900 ml water, 37° C., 150 rpm; micronizate pre-dispersed in 2 ml PVP-containing solution
Description: 14 mg of the solid form with Methocel E5 as excipient according to Example 2 with a content of active substance of 21.5 wt. % (equivalent to 3 mg drospirenone) is added to 900 ml water, at 37° C. and stirred at 150 rpm with a blade stirrer. A blind sample (starting value) and samples at 5, 10, 20, 30, and 60 min are taken, filtered in a 0.2 μm syringe filter and the dissolved fraction of drospirenone is determined by HPLC. A conventional micronizate (jet mill) serves as comparison. So that the dissolution behavior of the primary grains of the micronizate is assessed exclusively, wetting and agglomeration effects must be avoided. Therefore, before it was added to the 900 ml of water, the micronizate was dispersed in 2 ml of a PVP-containing solution. The process of release of the particles from the solid form and the subsequent process of dissolution are completed after 5 min, whereas with the conventional micronizate, even with perfect wetting and dispersion of the particles, still almost 30% of the active substance is undissolved after 5 min.

[2] = grain size distribution by laser diffraction (Sympatec Helos, RODOS dry disperser); type: physicochemical; conditions: vol. % of particles smaller than value
Description: The particle size distribution (grain size distribution) is measured by means of a laser diffraction, which provides a distribution curve of the particle sizes (System Sympatec Helos, RODOS dry disperser). dx means that x volume percent (vol. %) of the particles have a diameter that is smaller than the stated value. Thus, at a d50 value of 1 μm, 50 vol. % of the particles have a diameter smaller than 1 μm (micrometer). When the d10, d99 or d100 is 2 μm, 10, 99 or 100 vol. % of the particles have a diameter smaller than 2 μm.
A 100-ml stirred vessel with blade stirrer is charged with 160 g of Y-stabilized zirconium oxide spheres with a diameter of 0.5 mm plus 30 ml water. A solution of 1.5 g drospirenone in 6.25 ml ethanol/water 4:1 (v/v) is added, with stirring. After precipitation of a mainly amorphous phase, transformation to the crystalline modification begins after approximately 2 min. This is completed after 10 to 15 min. After completion of the phase transformation, a solution of 4.5 g drospirenone in 18.75 ml ethanol/water 4:1 (v/v) and in the same ratio 90 ml water is added dropwise within 15 min, with stirring at 1500 rpm. Simultaneously, with approximately constant filling level, product suspension is drawn off. Addition and product withdrawal can also take place quasicontinuously in smaller portions without any adverse effect on the result, if the above time frame is maintained. After the end of addition, to make the yield complete, approx. 60 ml water is used for rinsing. Alternatively, the suspension in the crystallizer can also be left as starting suspension for the next batch. Altogether, 200 g of suspension is obtained, with a solids content of 25 mg per ml. Approximately 15 ml of this suspension is filtered on a G4 frit and the solid is air-dried. The grain size distribution of the dried substance is determined by laser diffraction (Sympatec Helos, RODOS dispersing system).
Granulometric analysis is carried out by laser diffraction (Sympatec Helos, RODOS dispersing system):
Granulometric analysis was carried out by laser diffraction (Sympatec Helos, RODOS dispersing system, dispersing pressure 5 bar).

C[C@]12CCC(=O)C=C1[C@@H]1C[C@@H]1[C@H]1[C@@H]3[C@@H]4C[C@@H]4[C@@]4(CCC(=O)O4)[C@@]3(C)CC[C@@H]12 [conventional micronizate, drospirenone]
active substance undissolved after 5 min [1]: ~30%

C[C@]12CCC(=O)C=C1[C@@H]1C[C@@H]1[C@H]1[C@@H]3[C@@H]4C[C@@H]4[C@@]4(CCC(=O)O4)[C@@]3(C)CC[C@@H]12 [Example 1, drospirenone]
d16 (grain size distribution) [2]: 0.52 μm | d50 (grain size distribution) [2]: 1.48 μm | d99 (grain size distribution) [2]: 4.63 μm | d100 (grain size distribution) [2]: 6.00 μm
